We go through 11 compounds from patent publication US6534502B2, “Substituted oximes and hydrazones as neurokinin antagonists” (Schering Corporation, priority 1998, dated 2003).

The target of one experiment is NK1 receptor (Homo sapiens, UniProt P25103). Put plainly: neurokinin receptor binding assay, NK1. From the text: (§1) The in vitro and in vivo activity of the compounds of formula I can be determined by various procedures known in the art, such as a test for their ability to inhibit the activity of the NK1 agonist Substance P, an isolated hamster trachea NK2 assay, a test of the effect of NK1 antagonists on Substance P-induced airway microvascular leakage, measurement of NK2 activity in vivo in guinea pigs, measurement of bronchoconstriction due to NKA, and neurokinin receptor binding assay(s). NK3 activity is determined by following a procedure similar to that described in the literature, e.g., Molecular Pharmacol., 48 (1995), p. 711-716.
Chain of NK1 receptor (P25103 whole entry, species assumed): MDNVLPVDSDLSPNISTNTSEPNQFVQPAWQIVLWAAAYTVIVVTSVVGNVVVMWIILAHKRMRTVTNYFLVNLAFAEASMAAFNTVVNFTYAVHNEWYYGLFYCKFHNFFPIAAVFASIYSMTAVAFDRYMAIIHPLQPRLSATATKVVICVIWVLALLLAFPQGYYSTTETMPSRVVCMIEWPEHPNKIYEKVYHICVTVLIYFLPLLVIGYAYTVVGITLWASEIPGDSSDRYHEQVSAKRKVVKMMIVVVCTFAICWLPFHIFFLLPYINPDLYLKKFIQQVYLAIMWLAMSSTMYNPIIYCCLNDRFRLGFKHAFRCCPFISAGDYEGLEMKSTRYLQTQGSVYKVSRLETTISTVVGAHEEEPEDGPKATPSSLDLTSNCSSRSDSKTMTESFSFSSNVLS
(§2) % Inhibition of neurokinin agonist activity is the difference between the percent of maximum specific binding (MSB) and 100%. The percent of MSB is defined by the following equation, wherein “dpm” is disintegrations per minute: [formula]

For another experiment, the target named is T1, NK2 receptor (Homo sapiens, UniProt P21452).
T1 sequence (P21452 1-398): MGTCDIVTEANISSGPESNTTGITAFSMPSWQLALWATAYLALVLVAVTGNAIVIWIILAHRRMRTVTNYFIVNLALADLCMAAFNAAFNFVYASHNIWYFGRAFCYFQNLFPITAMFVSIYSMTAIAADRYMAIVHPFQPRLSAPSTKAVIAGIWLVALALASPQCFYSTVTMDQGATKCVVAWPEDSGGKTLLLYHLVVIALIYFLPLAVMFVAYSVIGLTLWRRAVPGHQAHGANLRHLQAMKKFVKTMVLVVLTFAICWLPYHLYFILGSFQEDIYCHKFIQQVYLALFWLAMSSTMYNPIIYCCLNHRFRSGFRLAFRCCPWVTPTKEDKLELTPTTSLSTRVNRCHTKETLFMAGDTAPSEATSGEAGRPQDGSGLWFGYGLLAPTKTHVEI
Put plainly: neurokinin receptor binding assay, NK2.
Text: The in vitro and in vivo activity of the compounds of formula I can be determined by various procedures known in the art, such as a test for their ability to inhibit the activity of the NK1 agonist Substance P, an isolated hamster trachea NK2 assay, a test of the effect of NK1 antagonists on Substance P-induced airway microvascular leakage, measurement of NK2 activity in vivo in guinea pigs, measurement of bronchoconstriction due to NKA, and neurokinin receptor binding assay(s).
as §2

The target in a further experiment is T2, NK3 receptor (Homo sapiens, UniProt P29371).
T2 sequence (P29371 1-465): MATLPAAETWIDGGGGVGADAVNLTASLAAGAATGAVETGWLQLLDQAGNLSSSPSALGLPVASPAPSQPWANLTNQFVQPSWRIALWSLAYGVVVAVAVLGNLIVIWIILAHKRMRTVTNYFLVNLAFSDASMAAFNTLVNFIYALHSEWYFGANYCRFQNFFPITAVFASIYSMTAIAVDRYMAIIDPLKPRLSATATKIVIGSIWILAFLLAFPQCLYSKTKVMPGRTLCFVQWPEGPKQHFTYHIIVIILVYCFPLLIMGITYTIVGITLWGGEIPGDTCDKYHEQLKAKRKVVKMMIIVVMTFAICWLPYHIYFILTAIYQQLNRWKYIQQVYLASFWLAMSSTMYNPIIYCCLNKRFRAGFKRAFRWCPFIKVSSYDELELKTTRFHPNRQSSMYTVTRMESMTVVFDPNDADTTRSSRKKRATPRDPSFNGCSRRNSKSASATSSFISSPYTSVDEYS
Kind of experiment: neurokinin receptor binding assay, NK3.
Text: as §1, §2

As to `CON=C(CN(C)C(=O)c1cc(Cl)cc(Cl)c1)C(CCN1CCC(N2C(=O)c3ccccc3C2C)CC1)c1ccc(Cl)c(Cl)c1` (stereo not shown) [Example 5B], the results for the inhibition constant (Ki) on NK1 receptor and at NK2 receptor were 0.9 nM and 2.8 nM, respectively.
Turning to `CO/N=C(\CN(C)C(=O)c1cc(Cl)cc(Cl)c1)[C@H](CCN1CCC(N2CCCN(CC(=O)N3CCOCC3)C2=O)CC1)c1ccc(Cl)c(Cl)c1` [Example 6E], the Ki at NK1 receptor was determined as 1 nM; at NK2 receptor it was 1 nM; at NK3 receptor it was 1.5 nM.
`CON=C(CN(C)C(=O)c1cc(Cl)cc(Cl)c1)C(CCN1CCC(N2CCCN(C(C)(C)C(=O)O)C2=O)CC1)c1ccc(Cl)c(Cl)c1` (stereo not shown) [Example 6M]: the inhibition constant (Ki) was determined as 0.9 nM on NK1 receptor, 0.5 nM on NK2 receptor and 0.3 nM on NK3 receptor.
On to `CO/N=C(\CN(C)C(=O)c1cc(Cl)cc(Cl)c1)[C@H](CCN1CCC(N2CCCN(Cc3nn[nH]n3)C2=O)CC1)c1ccc(Cl)c(Cl)c1` [Example 6S], for which, on NK3 receptor, the Ki is 2.1 nM.
With `CO/N=C(\CN(C)C(=O)c1cc(Cl)cc(Cl)c1)[C@H](CCN1CCC(N2CCCN(Cc3ccc[n+]([O-])c3)C2=O)CC1)c1ccc(Cl)c(Cl)c1` [Example 6Y], the Ki on NK1 receptor, on NK2 receptor and at NK3 receptor was 0.4 nM throughout.
In the case of `CO/N=C(\CN(C)C(=O)c1ccc2c(c1)OCO2)[C@H](CCN1CCC(N2CCCNC2=O)CC1)c1ccc(Cl)c(Cl)c1` [Example 7F], the values for the Ki at NK1 receptor, at NK2 receptor and at NK3 receptor were 1.8 nM, 0.4 nM and 3.8 nM, respectively.
Taken in the same sequence, the figures for `CO/N=C(\CN(C)C(=O)c1cc(Cl)cc(Cl)c1)C(CCN1CCC(N2CCNCC2=O)CC1)c1ccc(Cl)c(Cl)c1` (stereo not shown) [Example 8A] were 1.1 nM, 0.7 nM and 1.2 nM.
The matching figures for `CO/N=C(\CN(C)C(=O)c1cc(Cl)cc(Cl)c1)C(CCN1CCC(N2CC(=O)N[C@@H](CC(=O)O)C2=O)CC1)c1ccc(Cl)c(Cl)c1` (stereo partly shown) [Example 10B]: 2.9 nM, 28.9 nM and 34.6 nM.
The matching figures for `CO/N=C(\CN(C)C(=O)c1cc(Cl)cc(Cl)c1)[C@H](CCN1CCC(N2CC(=O)N[C@H](CC(N)=O)C2=O)CC1)c1ccc(Cl)c(Cl)c1` [Example 11A]: 0.8 nM, 1 nM and 1.9 nM.
`CN(C/C(=N\OC/C(N)=N/O)C(CCN1CCC(N2CCCN(C/C(N)=N/O)C2=O)CC1)c1ccc(Cl)c(Cl)c1)C(=O)c1cc(Cl)cc(Cl)c1` (stereo not shown) [Example 16]: the inhibitory constant (Ki) on NK1 receptor came out at 0.4 nM; on NK2 receptor it was 0.4 nM; at NK3 receptor, 0.7 nM.
For `CO/N=C(\CN(C)C(=O)c1cc(Cl)cc(Cl)c1)[C@H](CCN1CCC(n2c(=O)[nH]c3ccccc32)CC1)c1ccc(Cl)c(Cl)c1` [Example 18A], the Ki at NK3 receptor was found to be 9.8 nM.
